The source made the active and inactive calls. The rule behind the calls is not given here.
Legend:
[1] = molecular target: Insulin-degrading enzyme (Homo sapiens) (UniProt P14735); conditions: HepG2, 30 uM
[2] = molecular target: T1, Insulin-degrading enzyme (Homo sapiens, UniProt P14735); experiment: Inhibition of human recombinant IDE expressed in Escherichia coli BL21 (DE3) cells using ATTO 655- Cys-Lys-Leu-Val-Phe-Phe-Ala-Glu-Asp-Trp as substrate preincubated for 10 mins followed by substrate addition and measured after 30 mins by spectrophotometric analysis
T1 sequence (P14735 whole entry): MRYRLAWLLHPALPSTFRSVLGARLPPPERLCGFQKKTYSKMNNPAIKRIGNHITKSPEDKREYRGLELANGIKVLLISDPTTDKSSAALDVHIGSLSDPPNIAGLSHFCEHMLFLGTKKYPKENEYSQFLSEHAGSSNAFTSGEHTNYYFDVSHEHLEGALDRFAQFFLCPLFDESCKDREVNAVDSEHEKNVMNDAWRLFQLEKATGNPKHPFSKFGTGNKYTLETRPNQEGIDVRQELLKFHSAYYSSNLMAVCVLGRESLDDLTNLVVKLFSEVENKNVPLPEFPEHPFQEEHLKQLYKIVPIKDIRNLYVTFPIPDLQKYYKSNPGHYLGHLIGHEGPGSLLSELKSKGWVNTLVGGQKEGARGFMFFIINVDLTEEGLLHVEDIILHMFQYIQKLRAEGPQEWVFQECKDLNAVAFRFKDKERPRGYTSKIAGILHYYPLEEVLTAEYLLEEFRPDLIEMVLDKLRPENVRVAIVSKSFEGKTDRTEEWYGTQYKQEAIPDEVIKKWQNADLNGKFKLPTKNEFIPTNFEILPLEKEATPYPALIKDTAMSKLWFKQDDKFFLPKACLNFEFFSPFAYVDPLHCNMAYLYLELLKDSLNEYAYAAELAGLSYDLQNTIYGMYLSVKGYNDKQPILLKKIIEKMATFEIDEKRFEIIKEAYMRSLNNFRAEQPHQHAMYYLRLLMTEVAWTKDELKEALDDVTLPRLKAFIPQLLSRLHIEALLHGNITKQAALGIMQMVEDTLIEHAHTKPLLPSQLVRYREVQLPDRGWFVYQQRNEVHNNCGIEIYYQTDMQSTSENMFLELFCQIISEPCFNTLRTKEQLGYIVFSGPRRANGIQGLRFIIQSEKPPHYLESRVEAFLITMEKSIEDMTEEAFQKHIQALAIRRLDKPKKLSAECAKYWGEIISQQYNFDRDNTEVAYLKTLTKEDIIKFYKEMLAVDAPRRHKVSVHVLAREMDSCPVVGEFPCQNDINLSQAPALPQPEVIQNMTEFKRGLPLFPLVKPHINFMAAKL

[3] = molecular target: Insulin-degrading enzyme (Homo sapiens) (UniProt P14735); experiment: Inhibition of human recombinant IDE expressed in Escherichia coli BL21 (DE3) cells using ATTO 655- Cys-Lys-Leu-Val-Phe-Phe-Ala-Glu-Asp-Trp as substrate at 100 uM preincubated for 10 mins followed by substrate addition and measured after 30 mins by spectrophotometric analysis relative to control
[4] = molecular target: Insulin-degrading enzyme (Homo sapiens) (UniProt P14735); conditions: 2 mM
[5] = molecular target: Insulin-degrading enzyme (Homo sapiens) (UniProt P14735); experiment: Irreversible inhibition of human recombinant IDE expressed in Escherichia coli BL21 (DE3) cells using ATTO 655- Cys-Lys-Leu-Val-Phe-Phe-Ala-Glu-Asp-Trp as substrate preincubated for 30 mins followed by 100 fold compound dilution by spectrophotometric analysis
[6] = molecular target: Insulin-degrading enzyme (Homo sapiens, UniProt P14735, C110L/C171S/C178A/C257V/C414L/C573N/C590S/C789S/C812A/C819A/C904S/C966N/C974A); experiment: biochemical
Insulin-degrading enzyme (Homo sapiens, UniProt P14735, C110L/C171S/C178A/C257V/C414L/C573N/C590S/C789S/C812A/C819A/C904S/C966N/C974A), sequence (P14735 whole entry C110L/C171S/C178A/C257V/C414L/C573N/C590S/C789S/C812A/C819A/C904S/C966N/C974A): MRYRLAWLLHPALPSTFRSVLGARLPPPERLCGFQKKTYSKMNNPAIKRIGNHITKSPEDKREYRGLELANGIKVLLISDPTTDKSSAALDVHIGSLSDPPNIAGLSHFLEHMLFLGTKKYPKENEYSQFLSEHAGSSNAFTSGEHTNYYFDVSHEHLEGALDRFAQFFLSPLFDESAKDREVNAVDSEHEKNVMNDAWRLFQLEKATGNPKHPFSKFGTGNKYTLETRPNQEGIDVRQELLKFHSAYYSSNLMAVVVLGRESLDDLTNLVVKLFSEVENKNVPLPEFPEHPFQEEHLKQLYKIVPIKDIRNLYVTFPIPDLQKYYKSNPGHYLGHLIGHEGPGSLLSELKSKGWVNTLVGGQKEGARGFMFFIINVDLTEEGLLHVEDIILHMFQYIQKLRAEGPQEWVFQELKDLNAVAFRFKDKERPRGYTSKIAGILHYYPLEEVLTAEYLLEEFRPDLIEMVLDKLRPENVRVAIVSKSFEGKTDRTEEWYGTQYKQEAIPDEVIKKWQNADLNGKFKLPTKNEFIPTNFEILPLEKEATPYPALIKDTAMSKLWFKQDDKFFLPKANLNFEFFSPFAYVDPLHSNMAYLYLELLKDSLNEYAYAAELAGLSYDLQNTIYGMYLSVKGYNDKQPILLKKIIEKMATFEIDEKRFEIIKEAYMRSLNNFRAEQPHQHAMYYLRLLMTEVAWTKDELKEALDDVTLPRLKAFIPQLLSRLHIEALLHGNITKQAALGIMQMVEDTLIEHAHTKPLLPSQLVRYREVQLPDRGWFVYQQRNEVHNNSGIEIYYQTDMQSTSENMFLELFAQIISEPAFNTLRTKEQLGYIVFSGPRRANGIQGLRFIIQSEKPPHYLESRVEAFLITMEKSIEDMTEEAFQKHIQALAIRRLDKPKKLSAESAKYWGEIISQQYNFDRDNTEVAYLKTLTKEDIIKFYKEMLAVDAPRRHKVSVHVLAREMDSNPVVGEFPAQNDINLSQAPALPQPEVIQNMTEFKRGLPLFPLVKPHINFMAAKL

O=c1c2ccccc2[se]n1-c1ccccc1
deltaT [1]: 1.3 °C

COCCCOc1ccnc(C[S+]([O-])c2nc3ccccc3[nH]2)c1C (configuration not stated) [RABEPRAZOLE]
IC50 [2]: 11 µM | inhibition [3]: 98%

COc1ccc2[nH]c([S+]([O-])Cc3ncc(C)c(OC)c3C)nc2n1 (configuration not stated)
inhibition [3]: 35%

O=c1c(O)c(-c2cc(O)c(O)c(O)c2)oc2cc(O)cc(O)c12 [MYRICETIN]
IC50 [2]: 100 µM

O=C(O)CN(CCN(CC(=O)O)CC(=O)O)CC(=O)O
inhibition [4]: 100%

COc1ccc2[nH]c([S+]([O-])Cc3ncc(C)c(OC)c3C)nc2c1 (configuration not stated)
inhibition [3]: 41%

Cc1c(OCC(F)(F)F)ccnc1C[S+]([O-])c1nc2ccccc2[nH]1 (configuration not stated)
inhibition [3]: 38%

CCN1C(=O)C=CC1=O
inhibition [5]: Active

COc1ccnc(C[S+]([O-])c2nc3cc(OC(F)F)ccc3[nH]2)c1OC (configuration not stated)
inhibition [3]: 0%

O=C(C[C@@H](Cc1ccc2ccccc2c1)n1cc(CNC(=O)c2ccc(F)cc2)nn1)NO
deltaT [1]: 6.4 °C | IC50 [6]: 0.33 µM

Source: ChEMBL document CHEMBL4396912 (Eur J Med Chem, 2019)
